Measurements as given in PubChem BioAssay (NCI).
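Assay format: 96-well plates, 48-hour exposure. Abbreviation: GI50, concentration required for 50% inhibition of growth. TGI marks complete inhibition of growth.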

Assays:
Experiment in all cases: NCI tumour cell line growth inhibition, 48 h
[1] = system: 786-0 renal
[2] = system: A549 NSCLC
[3] = system: ACHN renal
[4] = system: BT-549 breast
[5] = system: CAKI-1 renal
[6] = system: CCRF-CEM leukemia
[7] = system: COLO 205 colon
[8] = system: DU-145 prostate
[9] = system: EKVX NSCLC
[10] = system: HCC-2998 colon
[11] = system: HCT-116 colon
[12] = system: HCT-15 colon
[13] = system: HL-60(TB) leukemia
[14] = system: HOP-62 NSCLC
[15] = system: HOP-92 NSCLC
[16] = system: HS 578T breast
[17] = system: HT29 colon
[18] = system: IGROV1 ovarian
[19] = system: KM12 colon
[20] = system: LOX IMVI melanoma
[21] = system: M14 melanoma
[22] = system: MALME-3M melanoma
[23] = system: MCF7 breast
[24] = system: MDA-MB-231 breast
[25] = system: MDA-MB-435
[26] = system: MOLT-4 leukemia
[27] = system: NCI-H226 lung
[28] = system: NCI-H23 lung

CCCCCCC/C(=N\N=C(N)N)c1ccc(O)cc1
GI50 [1]: 2.16 µM | TGI [1]: 5.31 µM | GI50 [2]: 2.88 µM | TGI [2]: 17.2 µM | GI50 [3]: 2.25 µM | TGI [3]: 5.13 µM | GI50 [4]: 2.41 µM | TGI [4]: 8.65 µM | GI50 [5]: 2.8 µM | TGI [5]: 11.8 µM | GI50 [6]: 1.96 µM | TGI [6]: 5.77 µM | GI50 [7]: 1.74 µM | TGI [7]: 3.16 µM | GI50 [8]: 3.15 µM | TGI [8]: 11 µM | GI50 [9]: 2.71 µM | TGI [9]: 14 µM | GI50 [10]: 1.62 µM | TGI [10]: 3 µM | GI50 [11]: 1.67 µM | TGI [11]: 3.41 µM | GI50 [12]: 3.48 µM | TGI [12]: 12.9 µM | GI50 [13]: 1.75 µM | TGI [13]: 3.65 µM | GI50 [14]: 1.81 µM | TGI [14]: 3.81 µM | GI50 [15]: 0.692 µM | TGI [15]: 3.19 µM | GI50 [16]: 3.14 µM | TGI [16]: 24.7 µM | GI50 [17]: 2.35 µM | TGI [17]: 6.25 µM | GI50 [18]: 2.28 µM | TGI [18]: 10.7 µM | GI50 [19]: 1.73 µM | TGI [19]: 3.52 µM | GI50 [20]: 1.62 µM | TGI [20]: 2.97 µM | GI50 [21]: 1.71 µM | TGI [21]: 3.18 µM | GI50 [22]: 1.77 µM | TGI [22]: 3.52 µM | GI50 [23]: 1.71 µM | TGI [23]: 4.43 µM | GI50 [24]: 1.67 µM | TGI [24]: 3.54 µM | GI50 [25]: 1.71 µM | TGI [25]: 3.44 µM | GI50 [26]: 1.67 µM | TGI [26]: 4.76 µM | GI50 [27]: 2.2 µM | TGI [27]: 6.63 µM | GI50 [28]: 2.6 µM | TGI [28]: 10.9 µM
